Columns and labels:
[1] = tested on: MOLT-4; assay: Growth inhibition of human MOLT4 cells incubated for 48 hrs by sulforhodamine B assay; format: functional, cell-based; details: MOLT-4, 48 h
[2] = tested on: A549; assay: Growth inhibition of human A549/ATCC cells incubated for 48 hrs by sulforhodamine B assay; format: functional, cell-based; details: A549, 48 h
[3] = tested on: HCC 2998; assay: Growth inhibition of human HCC2998 cells incubated for 48 hrs by sulforhodamine B assay; format: functional, cell-based; details: HCC 2998, 48 h
[4] = tested on: SK-MEL-2; assay: Growth inhibition of human SK-MEL-2 cells incubated for 48 hrs by sulforhodamine B assay; format: functional, cell-based; details: SK-MEL-2, 48 h
[5] = tested on: PC-3; assay: Growth inhibition of human PC3 cells incubated for 48 hrs by sulforhodamine B assay; format: functional, cell-based; details: PC-3, 48 h
[6] = tested on: DU-145; assay: Growth inhibition of human DU145 cells incubated for 48 hrs by sulforhodamine B assay; format: functional, cell-based; details: DU-145, 48 h
[7] = tested on: Hs-578T; assay: Growth inhibition of human Hs578T cells incubated for 48 hrs by sulforhodamine B assay; format: functional, cell-based
[8] = tested on: HL-60(TB); assay: Growth inhibition of human HL-60(TB) cells assessed as cell growth at 0.01 uM incubated for 48 hrs by sulforhodamine B assay relative to control; format: functional; details: HL-60, 48 h, read-out: Activity
[9] = tested on: NCI-H522; assay: Growth inhibition of human NCI-H522 cells assessed as cell growth at 0.01 uM incubated for 48 hrs by sulforhodamine B assay relative to control; format: functional; details: NCI-H522, 48 h, read-out: Activity
[10] = tested on: HL-60(TB); assay: Growth inhibition of human HL-60(TB) cells assessed as cell growth at 0.1 uM incubated for 48 hrs by sulforhodamine B assay relative to control; format: functional; details: HL-60, 48 h, read-out: Activity
[11] = tested on: RPMI-8226; assay: Growth inhibition of human RPMI8226 cells assessed as cell growth at 0.1 uM incubated for 48 hrs by sulforhodamine B assay relative to control; format: functional; details: RPMI-8226, 48 h, read-out: Activity
[12] = tested on: Malme-3M; assay: Growth inhibition of human MALME-3M cells assessed as cell growth at 0.1 uM incubated for 48 hrs by sulforhodamine B assay relative to control; format: functional; details: read-out: Activity
[13] = tested on: OVCAR-3; assay: Growth inhibition of human OVCAR3 cells assessed as cell growth at 0.1 uM incubated for 48 hrs by sulforhodamine B assay relative to control; format: functional; details: OVCAR-3, 48 h, read-out: Activity
[14] = tested on: NCI/ADR-RES; assay: Growth inhibition of human NCI/ADR-RES cells assessed as cell growth at 1 uM incubated for 48 hrs by sulforhodamine B assay relative to control; format: functional; details: read-out: Activity
[15] = tested on: CAKI-1; assay: Growth inhibition of human Caki1 cells assessed as cell growth at 1 uM incubated for 48 hrs by sulforhodamine B assay relative to control; format: functional; details: CAKI-1, 48 h, read-out: Activity
[16] = tested on: RXF 393; assay: Growth inhibition of human RXF393 cells assessed as cell growth at 1 uM incubated for 48 hrs by sulforhodamine B assay relative to control; format: functional; details: RXF 393, 48 h, read-out: Activity
[17] = tested on: DU-145; assay: Growth inhibition of human DU145 cells assessed as cell growth at 1 uM incubated for 48 hrs by sulforhodamine B assay relative to control; format: functional; details: DU-145, 48 h, read-out: Activity
[18] = tested on: MCF7; assay: Growth inhibition of human MCF7 cells assessed as cell growth at 1 uM incubated for 48 hrs by sulforhodamine B assay relative to control; format: functional; details: MCF7, 48 h, read-out: Activity
[19] = tested on: A549; assay: Growth inhibition of human A549/ATCC cells assessed as cell growth at 100 uM incubated for 48 hrs by sulforhodamine B assay relative to control; format: functional; details: A549, 48 h, read-out: Activity
[20] = tested on: SW-620; assay: Growth inhibition of human SW620 cells assessed as cell growth at 100 uM incubated for 48 hrs by sulforhodamine B assay relative to control; format: functional; details: SW-620, 48 h, read-out: Activity
[21] = tested on: SF-268; assay: Growth inhibition of human SF268 cells assessed as cell growth at 100 uM incubated for 48 hrs by sulforhodamine B assay relative to control; format: functional; details: SF-268, 48 h, read-out: Activity
[22] = tested on: SF-295; assay: Growth inhibition of human SF295 cells assessed as cell growth at 100 uM incubated for 48 hrs by sulforhodamine B assay relative to control; format: functional; details: SF-295, 48 h, read-out: Activity
[23] = tested on: OVCAR-4; assay: Growth inhibition of human OVCAR4 cells assessed as cell growth at 100 uM incubated for 48 hrs by sulforhodamine B assay relative to control; format: functional; details: OVCAR-4, 48 h, read-out: Activity
[24] = tested on: ACHN; assay: Growth inhibition of human ACHN cells assessed as cell growth at 100 uM incubated for 48 hrs by sulforhodamine B assay relative to control; format: functional; details: read-out: Activity
[25] = tested on: UO-31; assay: Growth inhibition of human UO31 cells assessed as cell growth at 100 uM incubated for 48 hrs by sulforhodamine B assay relative to control; format: functional; details: UO-31, 48 h, read-out: Activity
[26] = tested on: PC-3; assay: Growth inhibition of human PC3 cells assessed as cell growth at 100 uM incubated for 48 hrs by sulforhodamine B assay relative to control; format: functional; details: PC-3, 48 h, read-out: Activity
[27] = tested on: MDA-MB-231; assay: Growth inhibition of human MDA-MB-231 cells assessed as cell growth at 100 uM incubated for 48 hrs by sulforhodamine B assay relative to control; format: functional; details: MDA-MB-231, 48 h, read-out: Activity
[28] = tested on: Hs-578T; assay: Growth inhibition of human Hs578T cells assessed as cell growth at 100 uM incubated for 48 hrs by sulforhodamine B assay relative to control; format: functional; details: read-out: Activity
[29] = read-out: LC50 (the source's name)
[30] = read-out: pLC50 (the source's name) (converted)

Compound: COc1cc(Cl)cc(-c2nn(-c3cccc(NC(=O)Nc4ccc(Cl)c(Cl)c4)c3)cc2-c2ccncc2)c1
- GI50 ([1]; read-out: GI50): 1.59 µM
- CC50 [1, 29]: > 100 µM
- TGI ([1]; read-out: TGI): 61.3 µM
- GI50 ([1]; read-out: pGI50 (converted)): 1.7 µM
- CC50 [1, 30]: > 100 µM
- TGI ([1]; read-out: pTGI (converted)): 6.17 µM
- IC50 [2]: 1.48 µM
- GI50 ([2]; read-out: GI50): 1.48 µM
- CC50 [2, 29]: > 100 µM
- TGI ([2]; read-out: TGI): 15.3 µM
- GI50 ([2]; read-out: pGI50 (converted)): 1.48 µM
- CC50 [2, 30]: > 100 µM
- TGI ([2]; read-out: pTGI (converted)): 15.5 µM
- GI50 ([3]; read-out: GI50): 3.16 µM
- CC50 [3, 29]: > 100 µM
- TGI ([3]; read-out: TGI): 35.8 µM
- GI50 ([3]; read-out: pGI50 (converted)): 3.16 µM
- CC50 [3, 30]: > 100 µM
- TGI ([3]; read-out: pTGI (converted)): 37.2 µM
- GI50 ([4]; read-out: GI50): 1.54 µM
- CC50 [4, 29]: 8.54 µM
- TGI ([4]; read-out: TGI): 37.4 µM
- GI50 ([4]; read-out: pGI50 (converted)): 1.62 µM
- CC50 [4, 30]: 8.51 µM
- TGI ([4]; read-out: pTGI (converted)): 3.72 µM
- IC50 [5]: 1.13 µM
- GI50 ([5]; read-out: GI50): 1.13 µM
- CC50 [5, 29]: > 100 µM
- TGI ([5]; read-out: TGI): 52.5 µM
- GI50 ([5]; read-out: pGI50 (converted)): 1.12 µM
- CC50 [5, 30]: > 100 µM
- TGI ([5]; read-out: pTGI (converted)): 5.25 µM
- GI50 ([6]; read-out: GI50): 3 µM
- CC50 [6, 29]: > 100 µM
- TGI ([6]; read-out: TGI): > 100 µM
- GI50 ([6]; read-out: pGI50 (converted)): 3.89 µM
- CC50 [6, 30]: > 100 µM
- TGI ([6]; read-out: pTGI (converted)): > 100 µM
- GI50 ([7]; read-out: GI50): 3.59 µM
- CC50 [7, 29]: > 100 µM
- TGI ([7]; read-out: TGI): > 100 µM
- GI50 ([7]; read-out: pGI50 (converted)): 3.89 µM
- CC50 [7, 30]: > 100 µM
- TGI ([7]; read-out: pTGI (converted)): > 100 µM
- growth at 0.01 µM [8]: 99%
- growth at 0.01 µM [9]: 95%
- growth at 0.1 µM [10]: 93%
- growth at 0.1 µM [11]: 100%
- growth at 0.1 µM [12]: 50%
- growth at 0.1 µM [13]: 101%
- growth at 1 µM [14]: 78%
- growth at 1 µM [15]: 79%
- growth at 1 µM [16]: 75%
- growth at 1 µM [17]: 93%
- growth at 1 µM [18]: 83%
- growth at 100 µM [19]: -10%
- growth at 100 µM [20]: 7%
- growth at 100 µM [21]: 11%
- growth at 100 µM [22]: -21%
- growth at 100 µM [23]: -4%
- growth at 100 µM [24]: 6%
- growth at 100 µM [25]: -10%
- growth at 100 µM [26]: -24%
- growth at 100 µM [27]: -70%
- growth at 100 µM [28]: 28%

Compound: O=C(Nc1cccc(-n2cc(-c3ccncc3)c(-c3cc(O)cc(Cl)c3)n2)c1)c1ccc(N2CCOCC2)c(C(F)(F)F)c1
- GI50 ([1]; read-out: GI50): 1.11 µM
- CC50 [1, 29]: > 100 µM
- TGI ([1]; read-out: TGI): 43.6 µM
- GI50 ([1]; read-out: pGI50 (converted)): 1.12 µM
- CC50 [1, 30]: > 100 µM
- TGI ([1]; read-out: pTGI (converted)): 4.47 µM
- IC50 [2]: 1.64 µM
- GI50 ([2]; read-out: GI50): 1.54 µM
- CC50 [2, 29]: > 100 µM
- TGI ([2]; read-out: TGI): 18 µM
- GI50 ([2]; read-out: pGI50 (converted)): 1.66 µM
- CC50 [2, 30]: > 100 µM
- TGI ([2]; read-out: pTGI (converted)): 18.2 µM
- GI50 ([3]; read-out: GI50): 1.52 µM
- CC50 [3, 29]: > 100 µM
- TGI ([3]; read-out: TGI): 79.5 µM
- GI50 ([3]; read-out: pGI50 (converted)): 1.82 µM
- CC50 [3, 30]: > 100 µM
- TGI ([3]; read-out: pTGI (converted)): 7.94 µM
- GI50 ([4]; read-out: GI50): 2.34 µM
- CC50 [4, 29]: > 100 µM
- TGI ([4]; read-out: TGI): 13.2 µM
- GI50 ([4]; read-out: pGI50 (converted)): 2.34 µM
- CC50 [4, 30]: > 100 µM
- TGI ([4]; read-out: pTGI (converted)): 13.2 µM
- IC50 [5]: 1.09 µM
- GI50 ([5]; read-out: GI50): 1.09 µM
- CC50 [5, 29]: > 100 µM
- TGI ([5]; read-out: TGI): 45.6 µM
- GI50 ([5]; read-out: pGI50 (converted)): 1.1 µM
- CC50 [5, 30]: > 100 µM
- TGI ([5]; read-out: pTGI (converted)): 45.7 µM
- GI50 ([6]; read-out: GI50): 5.55 µM
- CC50 [6, 29]: > 100 µM
- TGI ([6]; read-out: TGI): > 100 µM
- GI50 ([6]; read-out: pGI50 (converted)): 5.62 µM
- CC50 [6, 30]: > 100 µM
- TGI ([6]; read-out: pTGI (converted)): > 100 µM
- GI50 ([7]; read-out: GI50): 2.94 µM
- CC50 [7, 29]: > 100 µM
- TGI ([7]; read-out: TGI): > 100 µM
- GI50 ([7]; read-out: pGI50 (converted)): 2.95 µM
- CC50 [7, 30]: > 100 µM
- TGI ([7]; read-out: pTGI (converted)): > 100 µM
- growth at 0.01 µM [8]: 92%
- growth at 0.01 µM [9]: 50%
- growth at 0.1 µM [10]: 114%
- growth at 0.1 µM [11]: 100%
- growth at 0.1 µM [12]: 85%
- growth at 0.1 µM [13]: 113%
- growth at 1 µM [14]: 79%
- growth at 1 µM [15]: 53%
- growth at 1 µM [16]: 13%
- growth at 1 µM [17]: 92%
- growth at 1 µM [18]: 82%
- growth at 100 µM [19]: -14%
- growth at 100 µM [20]: -19%
- growth at 100 µM [21]: 38%
- growth at 100 µM [22]: -81%
- growth at 100 µM [23]: 57%
- growth at 100 µM [24]: -20%
- growth at 100 µM [25]: -33%
- growth at 100 µM [26]: -8%
- growth at 100 µM [27]: -58%
- growth at 100 µM [28]: 30%

Source: ChEMBL document CHEMBL4308841, “Synthesis, in vitro antiproliferative activity, and kinase inhibitory effects of pyrazole-containing diarylureas and diarylamides” (Eur J Med Chem, 2018)
